Common to all, as to assay type: in vivo
Assay [1] concerns Puccinia recondita var. tritici. As to the kind of experiment: wheat leaf rust control on wheat seedlings. The following applies: 100 ppm, sprayed day before inoculation. As to the method: (§1) Compounds of this invention were dissolved in acetone in an amount equal to 6% of the final volume and then suspended at a concentration of 100 ppm in purified water containing 250 ppm of the surfactant TREM 014 (polyhydric alcohol esters). This suspension was sprayed to the point of run-off on wheat seedlings. The following day, the plants were inoculated with a spore suspension of Puccinia recondita var. tritici, causal agent of wheat leaf rust, and incubated in a saturated humidity chamber at 20° for 24 hours and then in a growth room for an additional 7 days, when disease ratings were made. Treated plants from successful treatments had few or no rust pustules while the untreated plants had numerous rust pustules on each leaf.

In the next assay the test system is Erysiphe cichoracearum. As to the kind of experiment: cucumber powdery mildew control on cucumber seedlings. The conditions noted are these: Golovinomyces cichoracearum, 168 h, 7 days. The procedure: Compounds of the previous examples were again dissolved in acetone in an amount equal to 6% of the final volume and then suspended at a concentration of 100 ppm in purified water containing 250 ppm of the surfactant TREM 014 (polyhydric alcohol esters). This suspension was sprayed to the point of run-off on cucumber seedlings. The following day, the plants were inoculated with a spore suspension of the fungus Erysiphe cichoracearum, causal agent of cucumber powdery mildew, and incubated in a growth room for 7 days. Disease ratings were then made. Treated plants from successful treatments had little or no powdery mildew in contrast to untreated plants which were covered with powdery mildew.

The next assay has as its system Venturia inaequalis. As to the kind of experiment: apple scab control on apple seedlings. The following applies: Venturia inaequalis; 100 ppm. The procedure: as §1, with “apple” for “wheat”, “the fungus Venturia inaequalis,” for “Puccinia recondita var. tritici,”, “apple scab,” for “wheat leaf rust,”, “10-12 days.” for “7 days, when disease ratings were made.”, “apple scab lesions when compared to” for “rust pustules while the”, “which were covered with scab lesions.” for “had numerous rust pustules on each leaf.”

The next assay concerns Helminthosporium maydis. Briefly: southern corn leaf blight control on corn seedlings. The following applies: Bipolaris maydis, 168 h. The procedure:
Compounds of the previous example were again dissolved in acetone in an amount equal to 6% of the final volume and then suspended at a concentration of 100 ppm in purified water containing 250 ppm of the surfactant TREM 014 (polyhydric alcohol esters). This suspension was sprayed to the point of run-off on corn seedlings. The following day, the plants were inoculated with a spore suspension of Helminthosporium maydis, causal agent of southern corn leaf blight, and incubated in a saturated humidity chamber at 20° for 24 hours and then in a growth room for an additional 7 days, when disease ratings were made. Treated plants from successful treatments had few lesions while the untreated plants had numerous lesions on each leaf.

A further assay has as its system Cercospora arachidicola. As to the kind of experiment: peanut early leafspot control on peanut seedlings. The conditions noted are these: Mycosphaerella arachidis, 336 h. The procedure:
Compounds of the previous examples were again dissolved in acetone in an amount equal to 6% of the final volume and then suspended at a concentration of 100 ppm in purified water containing 250 ppm of the surfactant TREM 014 (polyhydric alcohol esters). This suspension was sprayed to the point of run-off on peanut seedlings. The following day, the plants were inoculated with a spore suspension of Cercospora arachidicola, causal agent of peanut early leafspot, and incubated in a saturated humidity chamber at 27° for 24 hours and then in a growth room for an additional 14 days, when disease ratings were made. Treated plants from successful treatments had few or no leafspots while the untreated plants had numerous leafspots on each leaf.

A further assay deals with Rhizoctonia solani. Briefly: rice sheath blight control on rice seedlings. The following applies: Rhizoctonia solani, 168 h, 7 days. The procedure: Several compounds of the previous examples were again dissolved in acetone in an amount equal to 6% of the final volume and then suspended at a concentration of 100 ppm in purified water containing 250 ppm of the surfactant TREM 014 (polyhydric alcohol esters). This suspension was sprayed to the point of run-off on rice seedlings. The following day, the plants were inoculated with a mixture of bran and the mycelium of Rhizoctonia solani, causal agent of sheath blight of rice, and incubated in a growth room for 7 days. Disease ratings were then made. Treated plants from successful treatments had little sheath blight in contrast to untreated plants which were covered with sheath blight.

Another assay concerns Pyricularia oryzae. As to the kind of experiment: whole plant or invertebrate. The conditions noted are these: 168 h, read-out: % Control of Rice Blast.
Another assay concerns Phytophthora infestans. As to the kind of experiment: whole plant or invertebrate. The conditions noted are these: Phytophthora infestans, in Solanum lycopersicum, 168 h, read-out: % Control of Tomato Late Blight.
For assay [2], the system named is Pythium aphanadermatum. As to the kind of experiment: Pythium control on coated cotton seeds. The following applies: 168 h; for pest or weed control at 2000 mg/kg: 2 gm/kg seed, 1 week. An excerpt: Several compounds of the previous examples were incorporated into a proprietary formulation and used to coat cotton seeds at a rate of 2 gm/kg seed. After being thoroughly coated, the seeds were allowed to air dry at room temperature. The cotton seeds were then planted into soil amended with the fungus Pythium aphanadermatum, sand, and corn meal at a rate sufficient to kill most untreated seeds. The seeds were held at room temperature for 1 week, after which time disease ratings were made.

In assay [3] the test system is Pythium aphanadermatum. Briefly: Pythium control on coated corn seeds. The following applies: 504 h, 2 gm/kg seed, 49° F. 2 weeks then 70° F. 1 week. As to the method:
Several compounds of the previous examples were incorporated into a proprietary formulation and used to coat corn seeds at a rate of 2 gm/kg seed. After being thoroughly coated, the seeds were allowed to air dry at room temperature. The seeds were then planted into soil amended with a mixture of the fungus Pythium aphanadermatum, sand, and corn meal at a rate sufficient to kill most untreated seeds. The seeds were held at 49° F. for 2 weeks and then at 70° F. for 1 additional week. After this time disease ratings were made.

In the case of `C[Si](C)(Cn1ccnc1)c1ccc(Cl)cc1` [(4-Chlorophenyl)dimethyl(1H-imidazol-1-ylmethyl)silane], the pest or weed control at 100 ppm in [1] came out at 50%; in the assay with Erysiphe cichoracearum, 100%; in the assay on Venturia inaequalis, 0%; in the assay on Helminthosporium maydis, 0%; with Cercospora arachidicola, 0%; in the assay with Rhizoctonia solani, 0%. Also, the pest or weed control at 100 ppm in the assay with Pyricularia oryzae and in the assay with Phytophthora infestans was 0% throughout. In the assay on Pythium aphanadermatum [2] (0.5 gm/kg seed), the pest or weed control at 500 mg/kg came out at 18%. The molecule further yielded a pest or weed control at 2000 mg/kg with Pythium aphanadermatum [3] of 25%.

For the molecule `CCCC[Si](C)(Cn1ccnc1)c1ccc(F)cc1` (centres unmarked) [Butyl(4-fluorophenyl)(1H-imidazol-1-ylmethyl)methylsilane], the pest or weed control at 100 ppm in assay [1] came out at 0%; in the assay with Erysiphe cichoracearum it was 100%; in the assay on Venturia inaequalis, 80%; in the assay with Helminthosporium maydis it was 0%; in the assay on Cercospora arachidicola, 0%; with Rhizoctonia solani it was 80%. The pest or weed control at 100 ppm was found to be 100% with Pyricularia oryzae and 0% in the assay on Phytophthora infestans. The pest or weed control at 2000 mg/kg with Pythium aphanadermatum [2] and with Pythium aphanadermatum [3] was 0% in each case.

Consider `CCCC[Si](C)(Cn1ccnc1)c1ccc(-c2ccccc2)cc1` (centres unmarked) [(1,1'-Biphenyl-4-yl)butyl(1H-imidazol-1-ylmethyl)methylsilane], for which the pest or weed control at 100 ppm in [1] was found to be 100%; in the assay with Erysiphe cichoracearum, 100%; in the assay on Venturia inaequalis it was 100%; with Helminthosporium maydis it was 0%; in the assay with Cercospora arachidicola it was 90%; in the assay on Rhizoctonia solani, 90%. In addition, the pest or weed control at 100 ppm in the assay on Pyricularia oryzae worked out at 90%; in the assay on Phytophthora infestans, 0%. The pest or weed control at 2000 mg/kg with Pythium aphanadermatum [2] and in the assay with Pythium aphanadermatum [3] was 0% each time.

As to `Clc1ccc([Si](Cn2ccnc2)(c2ccc(Cl)cc2)c2ccc(Cl)cc2)cc1` [tris(4-Chlorophenyl)(1H-imidazol-1-ylmethyl)silane], the pest or weed control at 100 ppm in [1] turned out to be 0%; in the assay on Erysiphe cichoracearum, 100%; in the assay on Venturia inaequalis, 0%; in the assay with Helminthosporium maydis it was 0%; with Cercospora arachidicola, 0%; in the assay with Rhizoctonia solani it was 0%. Moreover, the pest or weed control at 100 ppm in the assay with Pyricularia oryzae and in the assay with Phytophthora infestans was 0% throughout.

`C[Si](C)(Cn1ccnc1)c1ccccc1Cl` [(2-Chlorophenyl)(1H-imidazol-1-ylmethyl)dimethylsilane]: the pest or weed control at 100 ppm in assay [1] amounted to 0%; with Erysiphe cichoracearum, 100%; with Venturia inaequalis, 90%; in the assay on Helminthosporium maydis it was 0%; with Cercospora arachidicola, 80%; with Rhizoctonia solani, 0%. For the same molecule, the pest or weed control at 100 ppm in the assay on Pyricularia oryzae and with Phytophthora infestans was 0% in each case. The pest or weed control at 2000 mg/kg in the assay on Pythium aphanadermatum [2] came to 0%.

`C[Si](C)(Cn1ccnc1)c1cccc(C(F)(F)F)c1` [Dimethyl(1H-imidazol-1-ylmethyl)(3-trifluoromethylphenyl)silane]: the pest or weed control at 100 ppm in [1] is 0%; in the assay with Erysiphe cichoracearum, 80%; with Venturia inaequalis, 0%; in the assay with Helminthosporium maydis, 0%; with Cercospora arachidicola, 50%; with Rhizoctonia solani, 0%. Besides, the results for the pest or weed control at 100 ppm with Pyricularia oryzae and in the assay on Phytophthora infestans were 0% and 70%, respectively. The pest or weed control at 2000 mg/kg in the assay on Pythium aphanadermatum [2] and with Pythium aphanadermatum [3] was 0% throughout.

With `COc1ccc([Si](C)(Cn2ccnc2)c2ccc(OC)cc2)cc1` [(1H-Imidazol-1-ylmethyl)[bis(4-methoxyphenyl)]methylsilane], the pest or weed control at 100 ppm in assay [1] came to 0%; in the assay with Erysiphe cichoracearum it was 50%; in the assay on Venturia inaequalis, 50%; in the assay on Helminthosporium maydis it was 0%; in the assay on Cercospora arachidicola it was 0%; in the assay with Rhizoctonia solani, 0%. Besides, the pest or weed control at 100 ppm in the assay with Pyricularia oryzae and in the assay with Phytophthora infestans was 0% throughout.

For the molecule `C[Si](C)(Cn1ccnc1)c1ccccc1-c1ccccc1` [(1,1'-Biphenyl-2-yl)dimethyl(1H-imidazol-1-ylmethyl)silane], the pest or weed control at 100 ppm in assay [1] was determined as 0%; in the assay with Erysiphe cichoracearum, 50%; in the assay on Venturia inaequalis, 90%; with Helminthosporium maydis it was 0%; with Cercospora arachidicola, 30%; with Rhizoctonia solani it was 90%. Also, the pest or weed control at 100 ppm came out at 90% in the assay with Pyricularia oryzae and 0% in the assay with Phytophthora infestans.

For the molecule `COc1cccc([Si](C)(C)Cn2ccnc2)c1OC` [(2,3-Dimethoxyphenyl)(1H-imidazol-1-ylmethyl)dimethylsilane], the pest or weed control at 100 ppm came to 0% in [1]; 100% with Erysiphe cichoracearum; 0% in the assay with Venturia inaequalis; 0% with Helminthosporium maydis; 0% with Cercospora arachidicola; 0% in the assay on Rhizoctonia solani. The pest or weed control at 100 ppm in the assay on Pyricularia oryzae and with Phytophthora infestans was 0% in each case.

Regarding `C[Si](C)(Cn1ccnc1)c1ccc(S(C)(=O)=O)cc1` [Dimethyl(1H-imidazol-1-ylmethyl)(4-methylsulfonylphenyl)silane], the pest or weed control at 100 ppm in [1] was 0%; in the assay with Erysiphe cichoracearum, 0%; with Venturia inaequalis it was 80%; in the assay with Helminthosporium maydis, 0%; with Cercospora arachidicola, 0%; with Rhizoctonia solani it was 0%. Moreover, the results for the pest or weed control at 100 ppm with Pyricularia oryzae and in the assay on Phytophthora infestans were 100% and 0%, respectively.

These data come from patent US4496551A (priority 1983, dated 1985).
